According to PubChem BioAssay (NCI):
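Each compound was tested at five concentrations against cells in 96-well plates for 48 hours. GI50: concentration for 50% inhibition of growth. TGI is the concentration that stops growth completely.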

Tests used:
Test in all cases: DTP human tumour cell line panel, 48 h
HCT-116 colon = tested on: HCT-116 colon
NCI-H226 lung = tested on: NCI-H226 lung
SNB-75 CNS = tested on: SNB-75 CNS
MDA-MB-435 = tested on: MDA-MB-435
SK-MEL-28 melanoma = tested on: SK-MEL-28 melanoma
OVCAR-5 ovarian = tested on: OVCAR-5 ovarian
UACC-257 melanoma = tested on: UACC-257 melanoma
EKVX NSCLC = tested on: EKVX NSCLC
OVCAR-8 ovarian = tested on: OVCAR-8 ovarian
KM12 colon = tested on: KM12 colon

| SMILES | GI50 (HCT-116 colon) | TGI (HCT-116 colon) | GI50 (NCI-H226 lung) | TGI (NCI-H226 lung) | GI50 (SNB-75 CNS) | TGI (SNB-75 CNS) | GI50 (MDA-MB-435) | TGI (MDA-MB-435) | GI50 (SK-MEL-28 melanoma) | TGI (SK-MEL-28 melanoma) | GI50 (OVCAR-5 ovarian) | TGI (OVCAR-5 ovarian) | GI50 (UACC-257 melanoma) | TGI (UACC-257 melanoma) | GI50 (EKVX NSCLC) | TGI (EKVX NSCLC) | GI50 (OVCAR-8 ovarian) | TGI (OVCAR-8 ovarian) | GI50 (KM12 colon) | TGI (KM12 colon) |
| --- | --- | --- | --- | --- | --- | --- | --- | --- | --- | --- | --- | --- | --- | --- | --- | --- | --- | --- | --- | --- |
| O=C1Nc2ccccc2/C1=C/c1cn(CC(O)Cn2cc(/C=C3\C(=O)Nc4ccccc43)c3ccccc32)c2ccccc12 (stereo not given) | 1.66 µM | 4.13 µM | 1.68 µM | 3.55 µM | 1.33 µM | 2.92 µM | 1.81 µM | 3.46 µM | 1.77 µM | 3.5 µM | 1.74 µM | 4.53 µM | 2.35 µM | 4.44 µM | 1.81 µM | 3.78 µM |  |  |  |  |
| CC(C)(C)c1nc(-c2cccc(NS(=O)(=O)c3c(F)cccc3F)c2F)c(-c2ccnc(N)n2)s1 | 20.4 µM | > 100 µM | 32.9 µM | > 100 µM |  |  | < 0.01 µM | > 100 µM | < 0.01 µM | > 100 µM | 12.3 µM | > 100 µM |  |  |  |  | 49.1 µM | > 100 µM | 23.8 µM | > 92.4 µM |
| CCOC(=O)C1=C(C(=O)OCC)C2(c3ccccc3)N(O1)c1ccccc1C2(C)C (stereo not given) |  | > 100 µM |  | > 100 µM |  | 89.5 µM |  |  |  | > 100 µM |  | > 100 µM |  | > 100 µM |  | > 100 µM |  | > 100 µM |  | > 100 µM |
| Cn1cc(C2=C(c3ccccc3C(F)(F)F)C(=O)NC2=O)c2ccccc21 | 6.59 µM | > 25 µM | 7.07 µM | > 24.2 µM | > 14 µM | > 25 µM | 9.89 µM | > 25 µM | 14.6 µM | > 25 µM | > 24.1 µM | > 25 µM | 9.59 µM | > 22.5 µM |  |  | 10.4 µM | > 25 µM | 6.97 µM | > 25 µM |
| C/C(O)=C(\N=O)C(=O)NCc1ccccc1 |  | > 100 µM |  | > 100 µM |  | > 100 µM |  |  |  | > 100 µM |  | > 100 µM |  | > 100 µM |  | > 100 µM |  | > 100 µM |  | > 100 µM |
| CCC(C)(O)c1cn(-c2ccc(S(=O)(=O)O)cc2)nn1 (stereo not given) |  | > 100 µM |  | > 100 µM |  | > 100 µM |  |  |  | > 100 µM |  | > 100 µM |  | > 100 µM |  | > 100 µM |  | > 100 µM |  | > 100 µM |
| COc1ccc(-c2nc(N)c(C#N)c3c2CCOc2c-3ccc3ccccc23)cc1 | 54.3 µM | > 100 µM | 18 µM | 58.2 µM | > 100 µM | > 100 µM | 46.6 µM | > 100 µM | 12.1 µM | 79.1 µM | 62.2 µM | > 100 µM | 13.7 µM | 37.8 µM |  |  | 23.3 µM | 58 µM | 42.7 µM | > 100 µM |
| C/C(CC(=O)Nc1ccc(NC(=O)C/C(C)=N\NC(N)=O)cc1)=N/NC(N)=O |  | > 100 µM |  | > 100 µM |  | > 100 µM |  |  |  | > 100 µM |  | > 100 µM |  | > 100 µM |  | > 100 µM |  | > 100 µM |  | > 100 µM |
| O=C(CN(/C=C/C(=O)C(F)(F)F)c1ccccc1)c1ccc(Cl)cc1 | 12 µM | 24.5 µM | 18.1 µM | 33.1 µM |  |  | 19.5 µM | 42.6 µM | 20.7 µM | 44.6 µM | 22.2 µM | 46.4 µM | 19.9 µM | 45.9 µM | 40 µM | > 100 µM | 18.6 µM | 45.5 µM | 15.2 µM | 37.7 µM |
